Results taken from PubChem BioAssay AID1963828 (Molecular Pharmacology Branch, DTP, NCI, 2024).
pIC50: −log10 of the molar value.

Tested on: 991263-137-R1-J2-PDC complex spheroid viability
Experiment: Anticancer human tumor 991263-137-R1-J2-PDC patient-derived colon adenocarcinoma cell line growth inhibition [POLQ]
Settings: for pIC50: curve of first compound; for viability, T/C: stronger effect = lower value
Method in brief: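 Complex spheroid viability model combining PDC tumour cells with endothelial (HUVEC) and MSC stromal cells. Novobiocin, ART-558 or RP6685 were tested singly and in combination with standard and investigational anticancer drugs. Each was titrated in half-log steps from near clinical Cmax, or from 10 microM where Cmax was unknown.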

[1] = second compound 0.0316 µM, first compound 0.0316 µM
[2] = second compound 0.0316 µM, first compound 0.1 µM
[3] = second compound 0.0316 µM, first compound 0.316 µM
[4] = second compound 0.0316 µM, first compound 1 µM
[5] = second compound 0.0316 µM, first compound 3.16 µM
[6] = second compound 0.0316 µM, first compound 10 µM
[7] = second compound 0.1 µM, first compound 0.0316 µM
[8] = second compound 0.1 µM, first compound 0.1 µM
[9] = second compound 0.1 µM, first compound 0.316 µM
[10] = second compound 0.1 µM, first compound 1 µM
[11] = second compound 0.1 µM, first compound 3.16 µM
[12] = second compound 0.1 µM, first compound 10 µM
[13] = second compound 0.316 µM, first compound 0.0316 µM
[14] = second compound 0.316 µM, first compound 0.1 µM
[15] = second compound 0.316 µM, first compound 0.316 µM
[16] = second compound 0.316 µM, first compound 1 µM
[17] = second compound 0.316 µM, first compound 3.16 µM
[18] = second compound 0.316 µM, first compound 10 µM
[19] = second compound 1 µM, first compound 0.0316 µM
[20] = second compound 1 µM, first compound 0.1 µM
[21] = second compound 1 µM, first compound 0.316 µM
[22] = second compound 1 µM, first compound 1 µM
[23] = second compound 1 µM, first compound 3.16 µM
[24] = second compound 1 µM, first compound 10 µM
[25] = second compound 3.16 µM, first compound 0.0316 µM
[26] = second compound 3.16 µM, first compound 0.1 µM
[27] = second compound 3.16 µM, first compound 0.316 µM
[28] = second compound 3.16 µM, first compound 1 µM
[29] = second compound 3.16 µM, first compound 3.16 µM
[30] = second compound 3.16 µM, first compound 10 µM
[31] = second compound 10 µM, first compound 0.0316 µM
[32] = second compound 10 µM, first compound 0.1 µM
[33] = second compound 10 µM, first compound 0.316 µM
[34] = second compound 10 µM, first compound 1 µM
[35] = second compound 10 µM, first compound 3.16 µM
[36] = second compound 10 µM, first compound 10 µM
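Further: spheroids exposed to compounds for 7 days before readout.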
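Wherever viability, T/C is given: 100% = DMSO vehicle control viability.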

CCc1cc2c(N3CCc4c(cc(Cn5ccnc5)cc4-c4cn(C)nc4C(F)(F)F)C3=O)ccnc2c(OC)n1 + Cc1cccc(N(C)C(=O)C2C(O)CCN2c2nc(C)cc(C(F)(F)F)c2C#N)c1
pIC50 (second compound 0.0316 µM): < 5.00
pIC50 (second compound 0.1 µM): < 5.00
pIC50 (second compound 0.316 µM): < 5.00
pIC50 (second compound 1 µM): < 5.00
pIC50 (second compound 3.16 µM): < 5.00
pIC50 (second compound 10 µM): < 5.00
viability, T/C [1]: 95.3%
viability, T/C [2]: 108%
viability, T/C [3]: 107%
viability, T/C [4]: 87.2%
viability, T/C [5]: 82.8%
viability, T/C [6]: 91.7%
viability, T/C [7]: 103%
viability, T/C [8]: 100%
viability, T/C [9]: 97.7%
viability, T/C [10]: 95.9%
viability, T/C [11]: 96.7%
viability, T/C [12]: 88.3%
viability, T/C [13]: 104%
viability, T/C [14]: 96.8%
viability, T/C [15]: 93.4%
viability, T/C [16]: 95.7%
viability, T/C [17]: 100%
viability, T/C [18]: 94.4%
viability, T/C [19]: 105%
viability, T/C [20]: 98.4%
viability, T/C [21]: 110%
viability, T/C [22]: 96%
viability, T/C [23]: 103%
viability, T/C [24]: 92%
viability, T/C [25]: 106%
viability, T/C [26]: 97.5%
viability, T/C [27]: 90.4%
viability, T/C [28]: 96.2%
viability, T/C [29]: 90.3%
viability, T/C [30]: 89%
viability, T/C [31]: 96.6%
viability, T/C [32]: 111%
viability, T/C [33]: 97%
viability, T/C [34]: 89.9%
viability, T/C [35]: 91.4%
viability, T/C [36]: 83%

COc1ccc([C@@H](O)c2cc(-c3ncnc4cc(N5CCOCC5)ccc34)c(F)cc2Cl)nn1 + Cc1cccc(N(C)C(=O)C2C(O)CCN2c2nc(C)cc(C(F)(F)F)c2C#N)c1
pIC50 (second compound 0.0316 µM): 5.59
pIC50 (second compound 0.1 µM): 5.24
pIC50 (second compound 0.316 µM): 5.22
pIC50 (second compound 1 µM): 5.21
pIC50 (second compound 3.16 µM): 5.25
pIC50 (second compound 10 µM): 5.42
viability, T/C [1]: 101%
viability, T/C [2]: 88.1%
viability, T/C [3]: 93.3%
viability, T/C [4]: 110%
viability, T/C [5]: 40.1%
viability, T/C [6]: 27.1%
viability, T/C [7]: 116%
viability, T/C [8]: 104%
viability, T/C [9]: 98.1%
viability, T/C [10]: 88%
viability, T/C [11]: 76.4%
viability, T/C [12]: 29.3%
viability, T/C [13]: 103%
viability, T/C [14]: 103%
viability, T/C [15]: 84.9%
viability, T/C [16]: 87.5%
viability, T/C [17]: 68.9%
viability, T/C [18]: 34.9%
viability, T/C [19]: 99.5%
viability, T/C [20]: 114%
viability, T/C [21]: 75.2%
viability, T/C [22]: 89%
viability, T/C [23]: 76.3%
viability, T/C [24]: 33.1%
viability, T/C [25]: 97.5%
viability, T/C [26]: 92.8%
viability, T/C [27]: 77.9%
viability, T/C [28]: 79.5%
viability, T/C [29]: 75.5%
viability, T/C [30]: 29.4%
viability, T/C [31]: 85.3%
viability, T/C [32]: 117%
viability, T/C [33]: 86%
viability, T/C [34]: 90.5%
viability, T/C [35]: 53.2%
viability, T/C [36]: 30%

Cn1ncnc1[C@H]1c2n[nH]c(=O)c3cc(F)cc(c23)N[C@@H]1c1ccc(F)cc1 + Cc1cccc(N(C)C(=O)C2C(O)CCN2c2nc(C)cc(C(F)(F)F)c2C#N)c1
pIC50 (second compound 0.0316 µM): < 7.00
pIC50 (second compound 0.1 µM): < 7.00
pIC50 (second compound 0.316 µM): < 7.00
pIC50 (second compound 1 µM): < 7.00
pIC50 (second compound 3.16 µM): < 7.00
pIC50 (second compound 10 µM): < 7.00
viability, T/C (second compound 0.0316 µM, first compound 0.000316 µM): 84.3%
viability, T/C (second compound 0.0316 µM, first compound 0.001 µM): 112%
viability, T/C (second compound 0.0316 µM, first compound 0.00316 µM): 123%
viability, T/C (second compound 0.0316 µM, first compound 0.01 µM): 93.3%
viability, T/C [1]: 124%
viability, T/C [2]: 112%
viability, T/C (second compound 0.1 µM, first compound 0.000316 µM): 105%
viability, T/C (second compound 0.1 µM, first compound 0.001 µM): 130%
viability, T/C (second compound 0.1 µM, first compound 0.00316 µM): 98.4%
viability, T/C (second compound 0.1 µM, first compound 0.01 µM): 83.8%
viability, T/C [7]: 91.8%
viability, T/C [8]: 86.9%
viability, T/C (second compound 0.316 µM, first compound 0.000316 µM): 97.9%
viability, T/C (second compound 0.316 µM, first compound 0.001 µM): 128%
viability, T/C (second compound 0.316 µM, first compound 0.00316 µM): 101%
viability, T/C (second compound 0.316 µM, first compound 0.01 µM): 92.7%
viability, T/C [13]: 110%
viability, T/C [14]: 99.4%
viability, T/C (second compound 1 µM, first compound 0.000316 µM): 92.1%
viability, T/C (second compound 1 µM, first compound 0.001 µM): 110%
viability, T/C (second compound 1 µM, first compound 0.00316 µM): 101%
viability, T/C (second compound 1 µM, first compound 0.01 µM): 104%
viability, T/C [19]: 99.7%
viability, T/C [20]: 115%
viability, T/C (second compound 3.16 µM, first compound 0.000316 µM): 103%
viability, T/C (second compound 3.16 µM, first compound 0.001 µM): 113%
viability, T/C (second compound 3.16 µM, first compound 0.00316 µM): 106%
viability, T/C (second compound 3.16 µM, first compound 0.01 µM): 78.5%
viability, T/C [25]: 91.7%
viability, T/C [26]: 106%
viability, T/C (second compound 10 µM, first compound 0.000316 µM): 105%
viability, T/C (second compound 10 µM, first compound 0.001 µM): 114%
viability, T/C (second compound 10 µM, first compound 0.00316 µM): 92.9%
viability, T/C (second compound 10 µM, first compound 0.01 µM): 74.8%
viability, T/C [31]: 106%
viability, T/C [32]: 92.5%
